The term Ki denotes a dissociation constant, usually derived from enzyme kinetics or from competition with a known ligand. Low values mean higher affinity, high ones lower affinity.

Drawing on ChEMBL document CHEMBL1147019, “5-Piperazinyl pyridine carboxamide bradykinin B1 antagonists” (Bioorg Med Chem Lett, 2006), this text covers Ki for 43 molecules.

The target in test [1] is T1, B1 bradykinin receptor (Homo sapiens, UniProt P46663).
T1 sequence (P46663 whole entry): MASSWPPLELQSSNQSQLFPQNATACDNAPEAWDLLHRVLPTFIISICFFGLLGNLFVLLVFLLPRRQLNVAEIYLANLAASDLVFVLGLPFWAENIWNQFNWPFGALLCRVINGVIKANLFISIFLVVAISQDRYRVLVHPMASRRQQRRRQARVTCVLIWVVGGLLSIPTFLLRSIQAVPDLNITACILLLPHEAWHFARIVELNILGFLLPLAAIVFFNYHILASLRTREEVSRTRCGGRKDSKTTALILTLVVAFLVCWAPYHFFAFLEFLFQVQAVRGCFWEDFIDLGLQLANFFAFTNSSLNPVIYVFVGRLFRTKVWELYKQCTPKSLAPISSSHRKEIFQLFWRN
The experiment in a line: Binding affinity to human BK1 receptor.

The target in test [2] is T2, B1 bradykinin receptor (Homo sapiens, UniProt P46663). In words: Binding affinity to human BK1 receptor D291 mutant.
Test [3] addresses T2, B1 bradykinin receptor. The experiment in a line: Binding affinity to human BK1 receptor Q295 mutant.
Test [4] deals with T2, B1 bradykinin receptor. In words: Binding affinity to human BK1 receptor N298 mutant.
Test [5] concerns the target T2, B1 bradykinin receptor. The experiment in a line: Binding affinity to human BK1 receptor E273 mutant.

On to `COC(=O)c1c(F)cccc1-c1ccc(CNc2cc(C(=O)N3CCOCC3)ccn2)c(F)c1`, for which the inhibition constant (Ki) in test [1] worked out at 2100 nM. In other words, the single-digit micromolar range.
The same measure, in the same setting: for `COC(=O)c1c(F)cccc1-c1ccc(CNc2ccc(C(=O)N3CCN(c4ccccc4)CC3)cn2)c(F)c1` the value was 62 nM; for `COC(=O)c1c(Cl)cccc1-c1ccc(CNc2cc(CN3CCCCC3)ccn2)c(F)c1`, 611 nM; for `COC(=O)c1c(F)cccc1-c1ccc(CNc2ccc(C(=O)N3CCN(CC(F)F)CC3)cn2)c(F)c1`, 28 nM.
On the same count and under the same terms, as for `COC(=O)c1c(F)cccc1-c1ccc(CNc2ccc(C(=O)N3CCN(C(=O)C(C)(C)C)CC3)cn2)c(F)c1`, the figure is 213 nM; as for `COC(=O)c1c(F)cccc1-c1ccc(CNc2ccc(C(=O)N3CCN(CC4CCC4)CC3)cn2)c(F)c1`, 3.4 nM.
Consider `O=C(C[C@@H]1C(=O)Nc2ccccc2N1S(=O)(=O)c1ccc(Cl)c(Cl)c1)NCCc1ccc(C2=NCCN2)cc1`, for which the Ki in test [2] worked out at 0.049 nM; in test [3], 0.89 nM; in test [4] it was 0.038 nM; in test [1], 0.034 nM; in test [5] it was 0.0078 nM.
Consider `COC(=O)c1c(F)cccc1-c1ccc(CNc2ccc(C(=O)N3CCN(CC4CCCC4)CC3)cn2)c(F)c1`, for which the inhibitory constant (Ki) in test [1] was 1.7 nM.
The same measure, in the same setting: for `COC(=O)c1c(Cl)cccc1-c1ccc(CNc2cc(CN3CCOCC3)ccn2)c(F)c1` the value was greater than 3000 nM; for `COC(=O)c1c(F)cccc1-c1ccc(CNc2ccc(CN3CCCCC3)cn2)c(F)c1`, 9.1 nM; for `COC(=O)c1c(F)cccc1-c1ccc(CNc2ccc(C(=O)N3CCN(C(=O)OC)CC3)cn2)c(F)c1`, 34 nM.
The molecule `C=CCCN1CCN(C(=O)c2ccc(NCc3ccc(-c4cccc(F)c4C(=O)OC)cc3F)nc2)CC1` returned a Ki in test [1] of 4 nM.
The molecule `COC(=O)c1c(F)cccc1-c1ccc(CNc2ccc(C(=O)N3CCN(S(C)(=O)=O)CC3)cn2)c(F)c1` yielded a Ki in test [1] of 23 nM.
`COC(=O)c1c(F)cccc1-c1ccc(CNc2ccc(C(=O)N3CCCCC3)cn2)c(F)c1` came in with an inhibitory constant (Ki) in test [1] of 70 nM. Against the preceding molecule, the Ki is about 3-fold higher.
The molecule `COC(=O)c1c(F)cccc1-c1ccc(CNc2ccc(C(=O)N3CCN(C(C)C)CC3)cn2)c(F)c1` came in with a Ki in test [1] of 2.2 nM.
On the same count and under the same terms, for `COC(=O)c1c(F)cccc1-c1ccc(CNc2ccc(C(=O)N3CCOCC3)cn2)c(F)c1` the value was 80 nM.
Same read-out and setting: as for `COC(=O)c1c(F)cccc1-c1ccc(CNc2ccc(C(=O)N3CCN(Cc4ccccc4)CC3)cn2)c(F)c1`, the figure is 26 nM.
The molecule `COC(=O)c1c(F)cccc1-c1ccc(CNc2nccc(C)c2NC(=O)CC#N)c(F)c1` had a Ki in test [1] of 0.71 nM.
Still for that read-out and setting: for `COC(=O)c1c(F)cccc1-c1ccc(CNc2ccc(C(=O)N3CCN(CC(F)(F)F)CC3)cn2)c(F)c1` the value was 52 nM; for `C#CCN1CCN(C(=O)c2ccc(NCc3ccc(-c4cccc(F)c4C(=O)OC)cc3F)nc2)CC1`, 25 nM.
For the molecule `CCC(C)N1CCN(C(=O)c2ccc(NCc3ccc(-c4cccc(F)c4C(=O)OC)cc3F)nc2)CC1` (stereo not given), in test [1], the Ki worked out at 1.5 nM.
Molecule `COC(=O)c1c(F)cccc1-c1ccc(CNc2ccc(C(=O)N3CCN(C4CCC4)CC3)cn2)c(F)c1` had an inhibitory constant (Ki) in test [1] of 2.9 nM.
Still for that read-out and setting: as for `COC(=O)c1c(F)cccc1-c1ccc(CNc2ccc(C(=O)N3CCN(C4CCCCC4)CC3)cn2)c(F)c1`, the figure is 2.8 nM.
Still for that read-out and setting: as for `CCCCN1CCN(C(=O)c2ccc(NCc3ccc(-c4cccc(F)c4C(=O)OC)cc3F)nc2)CC1`, the figure is 1.4 nM.
As to `COC(=O)c1c(F)cccc1-c1ccc(CNc2ccc(C(=O)N3CCN(c4ccccn4)CC3)cn2)c(F)c1`, the inhibition constant Ki in test [2] is 85 nM; in test [3], 10000 nM; in test [4], 726 nM; in test [1], 65 nM; in test [5], 286 nM.
In test [1], `C/C=C/CN1CCN(C(=O)c2ccc(NCc3ccc(-c4cccc(F)c4C(=O)OC)cc3F)nc2)CC1` showed an inhibitory constant (Ki) of 3.3 nM.
The molecule `COC(=O)c1c(F)cccc1-c1ccc(CNc2cc(C(=O)N3CCN(C)CC3)ccn2)c(F)c1` yielded a Ki in test [1] of 893 nM.
With `COC(=O)c1c(F)cccc1-c1ccc(CNc2ccc(C(=O)N3CCN(C(C)=O)CC3)cn2)c(F)c1`, in test [1], the Ki turned out to be 17 nM.
The same measure, in the same setting: as for `COC(=O)c1c(F)cccc1-c1ccc(CNc2ccc(C(=O)N3CCN(CCC(C)C)CC3)cn2)c(F)c1`, the figure is 9.5 nM.
Turning to `COC(=O)c1c(F)cccc1-c1ccc(CNc2ccc(C(=O)N3CCN(c4ccncc4)CC3)cn2)c(F)c1`, the inhibition constant (Ki) in test [2] is 0.08 nM; in test [3] it was 5.12 nM; in test [4], 0.83 nM; in test [1], 0.045 nM; in test [5] it was 0.05 nM.
Molecule `COC(=O)c1c(F)cccc1-c1ccc(CNc2ccccn2)c(F)c1` registered a Ki in test [1] of 815 nM.
The same measure, in the same setting: for `COC(=O)c1c(F)cccc1-c1ccc(CNc2ccc(CN3CCOCC3)cn2)c(F)c1` the value was 184 nM; for `CCN1CCN(C(=O)c2ccc(NCc3ccc(-c4cccc(F)c4C(=O)OC)cc3F)nc2)CC1`, 3.4 nM.
Take `COC(=O)c1c(F)cccc1-c1ccc(CNc2ccc(C(=O)N3CCNCC3)cn2)c(F)c1`: affinity in test [1] was put at a Ki of 5.5 nM.
The same measure, in the same setting: for `COC(=O)c1c(F)cccc1-c1ccc(CNc2ccc(C(=O)N3CCN(CC4CC4)CC3)cn2)c(F)c1` the value was 0.85 nM; for `COC(=O)c1c(F)cccc1-c1ccc(CNc2ccc(C(=O)N3CCN(CC(C)C)CC3)cn2)c(F)c1`, 1.5 nM; for `CCCN1CCN(C(=O)c2ccc(NCc3ccc(-c4cccc(F)c4C(=O)OC)cc3F)nc2)CC1`, 1.7 nM.
In test [1], `COC(=O)c1c(F)cccc1-c1ccc(CNc2cc(C(=O)N3CCCCC3)ccn2)c(F)c1` showed an inhibitory constant (Ki) greater than 3000 nM.
The same measure, in the same setting: for `COC(=O)c1c(F)cccc1-c1ccc(CNc2ccc(C(=O)N3CCN(c4cccnc4)CC3)cn2)c(F)c1` the value was 3.5 nM; for `COC(=O)c1c(F)cccc1-c1ccc(CNc2ccc(C(=O)N3CCN(CCF)CC3)cn2)c(F)c1`, 5.2 nM; for `C=CCN1CCN(C(=O)c2ccc(NCc3ccc(-c4cccc(F)c4C(=O)OC)cc3F)nc2)CC1`, 8 nM.
The same measure, in the same setting: as for `COC(=O)c1c(F)cccc1-c1ccc(CNc2ccc(C(=O)N3CCN(C)CC3)cn2)c(F)c1`, the figure is 4.4 nM; as for `COC(=O)c1c(F)cccc1-c1ccc(CNc2ccc(C(=O)N3CCN(C4CCCC4)CC3)cn2)c(F)c1`, 1.5 nM.
